One experiment addresses ROCK1 (Homo sapiens (Human), UniProt Q13464). In words: ROCK1 kinase IC50, biological test method similar to ROCK2 assay. Format: biochemical. The procedure:
(§1) The kinase IC50 was determined by a commercialized CISBIO kinase detection kit, HTRF KinEASE-STK S2 kit (62ST2PEC). ROCK2 (01-119) employed in the reaction was purchased from Carna Biosciences.
(§2) Before the assay, the following working solutions as needed were formulated with corresponding reagents according to the instruction of the kinase detection kit: 1×kinase buffer, 5×STK-S2 substrate working solution (1.5 μM) and 5×ATP working solution (1.5 μM), 5×ROCK2 kinase working solution, 4×Streptavidin-XL665 working solution, and 4×STK-Ab-Cryptate 2 detection solution. Then the assay was performed according to the following procedure.
(§3) A solution of a compound at a concentration of 10000 nM was prepared with the 1×kinase buffer containing 2.5% DMSO. Gradient dilution of the solution of the compound was performed with the kinase buffer containing DMSO, so as to obtain solutions of a test compound at 9 different concentrations. In addition to wells of test compounds, a positive well (containing all the reagents except the compound) and a negative well (containing all the reagents except the test compound and kinase) were set. Except for the control wells (positive and negative wells), a solution of a test compound (4 μL) was added to each of the reaction wells, and a solution of 2.5% DMSO was added to the control wells. Then the substrate (2 μM, i.e., 2 μL 5×STK-S2 substrate working solution) was added to each of the reaction wells. The 5×ROCK2 kinase working solution (2 μL, containing 1.4 ng ROCK2 kinase) was added to each of the reaction wells except for the negative well, the volume of which was made up with the 1×kinase buffer (2 μL). The 5×ATP working solution (2 μL) was added to each of the reaction wells, and the mixtures were incubated at room temperature for 2 hours. After the kinase reaction was complete, the 4×Streptavidin-XL665 working solution was added to each of the reaction wells, the solutions were mixed, followed by immediate addition of the 4×STK-Ab-Cryptate 2 detection solution (5 μL), and the mixtures were incubated at room temperature for 1 hour. The fluorescence signal was read on ENVISION (Perkinelmer) (excitation wavelength: 320 inn, and emission wavelength: 665 nm and 615 nm). The inhibitory rate in each well was calculated based on the fluorescence intensity value: ER (Emission Ratio)_(fluorescence intensity at 665 nm/fluorescence intensity at 615 nm); inhibitory rate=(ERpositive−ERtest compound)/(ERpositive−ERnegative)*100%. Curves were plotted and fitted to obtain the median inhibitory concentration (IC50) of each teat compound with the PRISM 5.0 software. According to a biological test method similar to the above, the IC50 values of the compounds on ROCK1 were also tested.

The next experiment deals with ROCK2 (Homo sapiens, UniProt O75116). The experiment can be described thus: ROCK2 kinase IC50, HTRF KinEASE-STK S2 kit. The class given is biochemical. Particulars: 2 hours at room temperature. The procedure: as §1, §2, §3
Chain of ROCK2 (O75116 whole entry, looked up): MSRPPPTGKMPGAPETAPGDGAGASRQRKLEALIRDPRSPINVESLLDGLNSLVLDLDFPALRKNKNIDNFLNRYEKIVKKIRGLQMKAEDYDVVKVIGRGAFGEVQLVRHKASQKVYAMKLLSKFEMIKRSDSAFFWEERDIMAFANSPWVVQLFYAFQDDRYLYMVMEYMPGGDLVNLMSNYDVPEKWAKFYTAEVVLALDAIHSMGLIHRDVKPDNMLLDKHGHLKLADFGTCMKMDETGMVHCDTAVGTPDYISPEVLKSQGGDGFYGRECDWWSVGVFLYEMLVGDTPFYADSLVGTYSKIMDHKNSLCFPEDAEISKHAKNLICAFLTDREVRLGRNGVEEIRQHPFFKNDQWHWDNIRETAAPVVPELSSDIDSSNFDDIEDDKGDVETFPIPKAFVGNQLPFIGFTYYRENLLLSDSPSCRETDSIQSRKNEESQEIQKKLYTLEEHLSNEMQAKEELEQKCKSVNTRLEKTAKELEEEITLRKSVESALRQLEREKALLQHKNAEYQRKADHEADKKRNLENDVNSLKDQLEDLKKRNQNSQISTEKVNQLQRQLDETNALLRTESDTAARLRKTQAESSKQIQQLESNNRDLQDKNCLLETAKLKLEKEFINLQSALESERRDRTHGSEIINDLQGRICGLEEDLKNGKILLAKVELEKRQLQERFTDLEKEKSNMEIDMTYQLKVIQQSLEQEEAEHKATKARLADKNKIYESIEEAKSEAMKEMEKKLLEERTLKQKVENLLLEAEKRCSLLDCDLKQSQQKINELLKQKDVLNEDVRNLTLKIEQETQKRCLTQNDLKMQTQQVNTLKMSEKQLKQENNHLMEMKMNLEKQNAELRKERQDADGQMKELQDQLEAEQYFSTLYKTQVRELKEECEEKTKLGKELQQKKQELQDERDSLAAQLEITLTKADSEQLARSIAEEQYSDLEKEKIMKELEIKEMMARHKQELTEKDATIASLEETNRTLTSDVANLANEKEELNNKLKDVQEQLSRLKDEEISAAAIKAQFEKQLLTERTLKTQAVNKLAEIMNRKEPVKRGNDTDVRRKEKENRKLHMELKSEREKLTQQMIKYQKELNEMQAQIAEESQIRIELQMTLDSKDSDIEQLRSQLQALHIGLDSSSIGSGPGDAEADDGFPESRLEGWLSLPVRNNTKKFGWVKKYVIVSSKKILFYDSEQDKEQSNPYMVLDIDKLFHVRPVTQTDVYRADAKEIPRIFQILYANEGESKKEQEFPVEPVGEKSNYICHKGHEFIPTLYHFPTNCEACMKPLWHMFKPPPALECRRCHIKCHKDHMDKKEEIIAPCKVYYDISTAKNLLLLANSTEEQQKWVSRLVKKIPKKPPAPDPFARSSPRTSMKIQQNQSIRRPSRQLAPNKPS
In general terms: Time-resolved FRET reads energy transfer from a long-lived donor to a nearby acceptor.

Our source for the IC50 values is patent US12398118B2, “Rho-associated protein kinase inhibitor, pharmaceutical composition comprising same, and use thereof” (BEIJING TIDE PHARMACEUTICAL CO., LTD., priority 2018, dated 2025).

Chain of ROCK1 (Q13464 whole entry, species assumed): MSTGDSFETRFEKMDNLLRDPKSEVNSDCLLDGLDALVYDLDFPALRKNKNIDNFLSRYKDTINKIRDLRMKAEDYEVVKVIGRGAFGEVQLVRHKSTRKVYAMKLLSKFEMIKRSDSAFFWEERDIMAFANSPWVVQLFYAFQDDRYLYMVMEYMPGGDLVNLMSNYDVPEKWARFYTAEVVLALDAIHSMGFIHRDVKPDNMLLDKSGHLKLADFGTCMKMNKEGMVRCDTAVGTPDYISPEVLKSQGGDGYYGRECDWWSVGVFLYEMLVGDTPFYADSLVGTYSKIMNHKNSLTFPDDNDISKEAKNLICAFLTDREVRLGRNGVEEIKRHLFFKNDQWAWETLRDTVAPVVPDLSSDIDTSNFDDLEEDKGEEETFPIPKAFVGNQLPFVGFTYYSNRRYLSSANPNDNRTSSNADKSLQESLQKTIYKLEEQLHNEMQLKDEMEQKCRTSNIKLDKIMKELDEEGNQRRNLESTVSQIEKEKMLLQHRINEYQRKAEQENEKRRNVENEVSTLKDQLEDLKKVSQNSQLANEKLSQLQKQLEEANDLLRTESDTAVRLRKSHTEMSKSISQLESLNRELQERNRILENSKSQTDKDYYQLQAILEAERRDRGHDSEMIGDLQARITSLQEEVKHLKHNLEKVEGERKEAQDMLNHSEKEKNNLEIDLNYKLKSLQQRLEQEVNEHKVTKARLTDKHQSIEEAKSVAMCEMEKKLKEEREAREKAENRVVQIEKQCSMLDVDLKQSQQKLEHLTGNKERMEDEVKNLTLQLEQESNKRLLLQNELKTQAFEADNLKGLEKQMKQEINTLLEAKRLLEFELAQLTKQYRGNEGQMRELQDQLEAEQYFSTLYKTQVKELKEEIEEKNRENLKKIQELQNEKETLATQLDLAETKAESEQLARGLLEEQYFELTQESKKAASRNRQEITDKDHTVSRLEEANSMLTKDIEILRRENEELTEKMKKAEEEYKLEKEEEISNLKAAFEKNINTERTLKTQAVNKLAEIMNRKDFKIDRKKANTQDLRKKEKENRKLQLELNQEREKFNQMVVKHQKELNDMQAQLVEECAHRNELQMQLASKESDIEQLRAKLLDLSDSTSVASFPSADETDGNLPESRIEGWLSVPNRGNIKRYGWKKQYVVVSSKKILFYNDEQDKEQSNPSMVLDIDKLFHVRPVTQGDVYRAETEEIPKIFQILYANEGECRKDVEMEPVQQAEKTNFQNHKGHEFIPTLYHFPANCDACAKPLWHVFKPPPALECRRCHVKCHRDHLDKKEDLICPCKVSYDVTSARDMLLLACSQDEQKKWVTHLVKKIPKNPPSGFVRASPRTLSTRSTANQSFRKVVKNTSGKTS

By IC50 is commonly meant the midpoint of a concentration-inhibition curve. A higher IC50 goes with a need for much substance. On to `O=C(OC1CC(F)(F)C1)N1CCc2sc(-c3ncc(F)c(Nc4ccc5c(=O)[nH]ccc5c4)n3)cc2C1` [C27, 3,3-difluorocyclobutyl 2-(5-fluoro-4-((1-oxo-1,2-dihydroisoquinolin-6-yl)amino)pyrimidin-2-yl)-6,7-dihydrothieno[3,2-c]pyridine-5(4H)-carboxylate], for which the IC50 is more than 10000 nM at ROCK1 and 8 nM against ROCK2.
In the case of `O=C1NCc2cc(Nc3nc(-c4ccc5c(c4)CN(C(=O)OC4CC(F)(F)C4)C5)ncc3F)ccc21` [C30, 3,3-difluoro-cyclobutyl 5-(5-fluoro-4-((1-oxo-isoindolin-5-yl)amino)pyrimidin-2-yl) isoindoline-2-carboxylate], the IC50 against ROCK1 was more than 10000 nM; on ROCK2, 216 nM.
Turning to `CC(CC(=O)N1Cc2ccc(-c3ncc(F)c(Nc4ccc5c(=O)[nH]ccc5c4)n3)cc2C1)C(F)(F)F` (stereo not shown) [C37, 6-((5-fluoro-2-(2-(4,4,4-trifluoro-3-methylbutanoyl)isoindolin-5-yl)pyrimidin-4-yl)amino)isoquinolin-1(2H)-one], the values for the IC50 on ROCK1 and on ROCK2 were more than 10000 nM and 117 nM, respectively.
The like results for `Cn1c(C(=O)N2CC(F)(F)C2)cc2ccc(-c3nccc(Nc4ccc5c(N)nccc5c4)n3)cc21` [C38, (6-(4-((1-aminoisoquinolin-6-yl)amino)pyrimidin-2-yl)-1-methyl-1H-indol-2-yl)(3,3-difluoroazetidin-1-yl)methanone] were, in that order, more than 10000 nM and 264 nM.
For the compound `CC(OC(=O)N1CCc2cc(-c3ncc(F)c(Nc4ccc5c(=O)[nH]ccc5c4)n3)ccc2C1)C(F)(F)F` (stereo not shown) [C39, 1,1,1-trifluoro-propan-2-yl 6-(5-fluoro-4-((1-oxo-1,2-dihydro-isoquinolin-6-yl)amino)pyrimidin-2-yl)-3,4-dihydro-isoquinolin-2(1H)-carboxylate], the IC50 against ROCK1 is more than 10000 nM; against ROCK2, 102 nM.
In the case of `CC(OC(=O)N1CCc2cc(-c3nccc(Nc4ccc5c(c4)CCNC5=O)n3)ccc2C1)C(F)(F)F` (stereo not shown) [C40, 1,1,1-trifluoro-propan-2-yl 6-(4-((1-oxo-1,2,3,4-tetrahydro-isoquinolin-6-yl)amino)pyrimidin-2-yl)-3,4-dihydro-isoquinolin-2(1H)-carboxylate], the IC50 on ROCK1 is more than 10000 nM; against ROCK2, 270 nM.
In the case of `O=C1NCCc2cc(Nc3nc(-c4ccc5c(c4)CN(C(=O)N4CCC(F)(F)CC4)C5)ncc3F)ccc21` [C41, 6-((2-(2-(4,4-difluoro-piperidine-1-carbonyl)isoindolin-5-yl)-5-fluoro-pyrimidin-4-yl)amino)-3,4-dihydro-isoquinolin-1(2H)-one], the IC50 against ROCK1 was more than 10000 nM; on ROCK2, 151 nM.
Regarding `CC(C)(C)OC(=O)N1CCc2sc(-c3ncc(F)c(Nc4ccc5c(c4)CCNC5=O)n3)cc2C1` [C42, tert-butyl 2-(5-fluoro-4-((1-oxo-1,2,3,4-tetrahydroisoquinolin-6-yl)amino)pyrimidin-2-yl)-6,7-dihydrothieno[3,2-c]pyridine-5(4H)-carboxylate], the 50% inhibitory concentration (IC50) against ROCK1 is more than 10000 nM; against ROCK2, 31 nM.
In the case of `O=C(N1CCc2cc(-c3nccc(Nc4ccc5c(=O)[nH]ccc5c4)n3)ccc2C1)N1CC(F)(F)C1` [C44, 6-((2-(2-(3. 3-difluoro-azetidine-1-carbonyl)-1,2,3,4-tetrahydro-isoquinolin-6-yl)pyrimidin-4-yl)amino) isoquinolin-1(2H)-one], the IC50 is more than 10000 nM on ROCK1 and 57 nM against ROCK2.
On to `CC(OC(=O)N1CCc2sc(-c3ncc(F)c(Nc4ccc5c(=O)[nH]ccc5c4)n3)cc2C1)C(F)(F)F` (stereo not shown) [C46, 1,1,1-trifluoropropan-2-yl 2-(5-fluoro-4-((1-oxo-1,2-dihydroisoquinolin-6-yl)amino)pyrimidin-2-yl)-6,7-dihydrothieno[3,2-c]pyridine-5(4H)-carboxylate], for which the IC50 on ROCK1 is more than 10000 nM; against ROCK2, 21 nM.
Consider `CC(CC(=O)N1CCc2sc(-c3ncc(F)c(Nc4ccc5c(=O)[nH]ccc5c4)n3)cc2C1)C(F)(F)F` (stereo not shown) [C47, 6-((5-fluoro-2-(5-(4,4,4-trifluoro-3-methylbutanoyl)-4,5,6,7-tetrahydrothieno[3,2-c]pyridin-2-yl)pyrimidin-4-yl)amino)isoquinolin-1(2H)-one], for which the IC50 against ROCK1 was more than 10000 nM; on ROCK2, 15 nM.
`CC(CC(=O)N1Cc2ccc(-c3nccc(Nc4ccc5c(=O)[nH]ccc5c4)n3)cc2C1)C(F)(F)F` (stereo not shown) [C48, 6-((2-(2-(4,4,4-trifluoro-3-methyl-butanoyl)isoindolin-5-yl)pyrimidin-4-yl)amino) isoquinolin-1(2H)-one]: the IC50 against ROCK1 is more than 10000 nM; on ROCK2, 13 nM.
As for `CC(CC(=O)N1CCc2sc(-c3nccc(Nc4ccc5c(=O)[nH]ccc5c4)n3)cc2C1)C(F)(F)F` (stereo not shown) [C49, 6-((2-(5-(4,4,4-trifluoro-3-methylbutanoyl)-4,5,6,7-tetrahydrothieno[3,2-c]pyridin-2-yl)pyrimidin-4-yl)amino)isoquinolin-1(2H)-one], the IC50 on ROCK1 was more than 10000 nM; against ROCK2 it was 7 nM.
Taken in the same sequence, the figures for `CC(CC(=O)N1Cc2ccc(-c3nc(Nc4ccc5c(=O)[nH]ccc5c4)c4ccccc4n3)cc2C1)C(F)(F)F` (stereo not shown) [C50] were more than 10000 nM and 280 nM.
As for `CC(C)(C)CC(=O)N1Cc2ccc(-c3ncc(F)c(Nc4ccc5c(=O)[nH]ccc5c4)n3)cc2C1` [C51, 6-((2-(2-(3,3-dimethyl-butanoyl)isoindolin-5-yl)-5-fluoro-pyrimidin-4-yl)amino) isoquinolin-1(2H)-one], the IC50 against ROCK1 was more than 10000 nM; at ROCK2 it was 53 nM.
Taken in the same sequence, the figures for `CC(C)(C)CC(=O)N1CCc2sc(-c3ncc(F)c(Nc4ccc5c(c4)CCNC5=O)n3)cc2C1` [C53, 6-((2-(5-(3,3-dimethylbutanoyl)-4,5,6,7-tetrahydrothieno [3,2-c]pyridin-2-yl)-5-fluoropyrimidin-4-yl)amino)-3,4-dihydroisoquinolin-1(2H)-one] were more than 10000 nM and 135 nM.
As to `O=C(C1CC(F)(F)C1)N1Cc2ccc(-c3nccc(Nc4ccc5c(=O)[nH]ccc5c4)n3)cc2C1` [C54, 6-((2-(2-(3,3-difluoroocyclobutane-1-carbonyl)isoindolin-5-yl)pyrimidin-4-yl)amino)isoquinolin-1(2H)-one], the 50% inhibitory concentration (IC50) against ROCK1 is more than 10000 nM; on ROCK2, 17 nM.
With `CC(CC(=O)N1CCc2sc(-c3ncc(F)c(Nc4ccc5c(c4)CCNC5=O)n3)cc2C1)C(F)(F)F` (stereo not shown) [C55, 6-((5-fluoro-2-(5-(4,4,4-trifluoro-3-methylbutanoyl)-4,5,6,7-tetrahydrothieno[3,2-c]pyridin-2-yl)pyrimidin-4-yl)amino)-3,4-dihydroisoquinolin-1(2H)-one], the IC50 was more than 10000 nM against ROCK1 and 51 nM at ROCK2.
For the compound `CC(C)(C)CC(=O)N1Cc2ccc(-c3nccc(Nc4ccc5c(=O)[nH]ccc5c4)n3)cc2C1` [C56, 6-((2-(2-(3,3-dimethyl-butanoyl)isoindolin-5-yl)pryimidin-4-yl)amino) isoquinolin-1(2H)-one], the values for the IC50 against ROCK1 and against ROCK2 were more than 10000 nM and 24 nM, respectively.
In the case of `CC(C)(C)CC(=O)N1CCc2sc(-c3nccc(Nc4ccc5c(=O)[nH]ccc5c4)n3)cc2C1` [C57, 6-((2-(5-(3,3-dimethylbutanoyl)-4,5,6,7-tetrahydrothieno[3,2-c]pyridin-2-yl)pyrimidin-4-yl)amino)isoquinolin-1(2H)-one], the IC50 at ROCK1 is more than 10000 nM; at ROCK2, 16 nM.
